Laboratory results reported in US20230049115A1, “SYSTEM AND METHOD FOR TARGET THERMAL ANALYSIS IN COMPLEX FLUIDS” (Portland State University, priority 2021, published 2023).
Where “and” joins values, the source holds several entries; their conditions need not be identical. Identical values can stand only once.

Assays:
[1] = DSC melting temperature of pure proteins and DNA hairpin in standard buffer (Example 2); assay type: physicochemical; conditions: standard buffer pH=7.4, independent of concentration
Experimental: Chemicals and reagents: Standard buffer for all experiments contained 150 mM NaCl, 10 mM potassium phosphate, 15 mM sodium citrate adjusted to pH=7.4 with hydrochloric acid. Pure Proteins: Human Serum Albumin (HSA) (≥99% pure, Lot number: SLBT8667) and lysozyme (recombinant, expressed in rice, Lot number: SLCH2681). The above proteins were prepared in standard buffer and stored at 4° C. for at least 24 hours before use. Concentrations of HSA and lysozyme were confirmed spectrophotometrically at A280.
DNA: The DNA was a 20-base pair hairpin purchased from IDT and received following a standard desalting routine. […] Lyophilized DNA was resuspended in standard buffer and stored at 4° C. DNA concentration matched the manufacturer specification as determined spectrophotometrically at A260.
DSC Measurements: DSC melting experiments were made using a CSC differential scanning microcalorimeter (now T.A. instruments, New Castle, Del.). […]
Baselines of the raw ΔCp or μcal versus temperature thermograms were determined using a four-point polynomial fit, over the temperature range of the transition, consistent with previous methods (Eskew et al., Anal Biochem 2021, 612:113843; Koslen et al., Adv in Biol Chem 2019, 9; Eskew et al., Anal Biochem 2021, 628:114293). […]

streptavidin = molecular target: T1, streptavidin (Streptomyces avidinii, UniProt P22629); assay: DSC thermogram shift on streptavidin-biotin binding, in buffer and in reconstituted E. coli lysate; conditions: for Streptavidin + Biotin Tm: 2 molar equivalents of biotin
T1 construct: purchased Alfa Aesar
Experimental: (§1) Preparation of Samples for DSC Measurements: E. coli lysate was prepared by resuspending powdered lysate in standard PBS buffer to make a 2.7 mg/mL lysate solution. The HEK923 cell lysate was the supernatant after initial centrifugation of the crude cell lysate and received in liquid form at unknown concentration. […] Streptavidin, captopril, lisinopril, and biotin were prepared in standard buffer. All samples were incubated for 24 hours at 4° C.
(§2) DSC Measurements: DSC melting experiments were made using a CSC differential scanning microcalorimeter (now T.A. instruments, New Castle, Del.). Samples were prepared by adding specific reaction components to pre-prepared media. For DSC melting experiments, the sample heating rate was approximately 1° C./min while monitoring changes in the excess heat (microwatts) of the sample versus temperature. […] Since all experiments involved investigating interactions of ligands with proteins using DSC, we were interested in testing the sensitivity or our approach to detect proteins and protein/ligand interactions in the background solution comprised of the crude cell lysate. Consequently, all DSC measurements were made on samples in the lysate media, E. coli lysate or HEK923 supernatant, where samples were prepared. Thermograms were acquired for the complex media background, several proteins, and mixtures of these proteins with ligands, i.e. drugs or other another protein.
(§3) Data Reduction and Analysis: Where the protein concentration was known, further refinement and normalization of the data provided the familiar DSC melting curve in the form of a plot of excess heat capacity, ΔCP, of the sample as a function of increasing temperature. Plots of ΔCP versus temperature are commonly termed DSC thermograms. In this case, the enthalpy of the transition can be estimated from the integrated area under the thermogram. These enthalpies can be used to gain valuable insight into protein structural stability (Eskew et al., Anal Biochem 2021, 612:113843). […] For these measurements, meaningful transition enthalpies cannot be determined.
(§4) Baselines of the raw ΔCP or μW versus temperature thermograms for E. coli were determined using a three point polynomial fit, over the temperature range of the transition, which produced a nearly straight line from 40° C. to 110° C. Baselines of the raw ΔCP or μW versus temperature thermograms for HEK293 samples were determined by connecting a straight line between data points at 40° C. and 100° C. This baseline was then subtracted from the raw curves, producing baseline corrected thermograms used for further comparisons and analysis. Between initial and final temperatures, ΔCp, for proteins is known to vary from 7-10 kcal/mol·K (Watanabe et al., Pharm Res. 2001, 18:1775-1781; Shrake et al., Vox sanguinis 1984, 47:7-18). Baseline choices served to effectively remove this difference (Eskew et al., Anal Biochem 2021, 612:113843; Lang et al., Biotechnology Progress 2015, 31:62-69). […] For all experiments thermograms of the media alone served as the background that was subtracted from thermograms of samples containing drugs and/or proteins in the same media. These difference thermograms provided enhanced visualization of sample-specific changes, corresponding predominantly to the ligand/protein interactions of concern.
Streptavidin-Biotin: Initial investigations explored streptavidin-biotin binding in reconstituted E. coli lysate. Binding behavior was examined under several conditions meant to mimic what might be encountered in an actual expression system. FIGS. 4A-4D and 5A-5D present results of this initial study. The thermogram of the E. coli lysate alone served as the background against which streptavidin-biotin binding was examined. Along with that of the media (alone) thermograms for lysate solutions containing streptavidin in different amounts, and streptavidin plus two molar equivalents of biotin in the background media solution are also shown in FIGS. 4A-4D. […]

[2] = molecular target: T2, unpurified angiotensin converting enzyme 2 (ACE2) expressed in human embryonic kidney cells (HEK293) (Homo sapiens, UniProt Q9BYF1); assay type: binding
T2 construct: the expressed region for the purchased ACE2 was from Gln18-Ser740; His-tag; purchased RayBiotech Lot number: 02U2802LL; host or cells: HEK293

COVID-19 = conditions: cited from earlier work
ACE2 = conditions: previous molecular docking studies; cited from earlier work
[3] = DSC thermogram of the protein alone (Example 1: buffer, E. coli lysate or HEK293 supernatant background subtracted); assay type: physicochemical
Experimental: as §1, §2, §3, §4
The thermogram measured for the supernatant, without ACE2 present, served as the background against which comparisons were made. […] These curves have similar shapes but there is a clear difference for the thermogram of the supernatant containing ACE2. To isolate and enhance the specific contributions to the thermogram of ACE2 protein, the background thermogram for the supernatant alone was subtracted from that for ACE2 in the supernatant. […] This observation is in precise agreement with published results of DSC measurements on unmodified ACE2, that also found two peaks at precisely the same temperatures (Voronov et al., FEBS Letters 2002, 522:77-82). […]

[4] = 1 mg/mL Streptavidin (33%, Condition-II), E. coli lysate
[5] = 1 mg/mL Streptavidin (control), in buffer
[6] = 2 mg/mL Streptavidin (11%, Condition-III), E. coli lysate
[7] = 2 mg/mL Streptavidin (33%, Condition-I), E. coli lysate
[8] = Conditions-I and II, difference thermograms FIGS. 5A and 5B
[9] = unpurified ACE2 in HEK293 supernatant, background subtracted (FIG. 6B)

T1 sequence (P22629 25-183): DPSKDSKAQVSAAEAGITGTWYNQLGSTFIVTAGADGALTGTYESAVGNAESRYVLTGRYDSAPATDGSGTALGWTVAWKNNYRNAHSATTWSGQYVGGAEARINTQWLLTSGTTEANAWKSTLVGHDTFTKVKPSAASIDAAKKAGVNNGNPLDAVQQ
T2 sequence (Q9BYF1 18-740): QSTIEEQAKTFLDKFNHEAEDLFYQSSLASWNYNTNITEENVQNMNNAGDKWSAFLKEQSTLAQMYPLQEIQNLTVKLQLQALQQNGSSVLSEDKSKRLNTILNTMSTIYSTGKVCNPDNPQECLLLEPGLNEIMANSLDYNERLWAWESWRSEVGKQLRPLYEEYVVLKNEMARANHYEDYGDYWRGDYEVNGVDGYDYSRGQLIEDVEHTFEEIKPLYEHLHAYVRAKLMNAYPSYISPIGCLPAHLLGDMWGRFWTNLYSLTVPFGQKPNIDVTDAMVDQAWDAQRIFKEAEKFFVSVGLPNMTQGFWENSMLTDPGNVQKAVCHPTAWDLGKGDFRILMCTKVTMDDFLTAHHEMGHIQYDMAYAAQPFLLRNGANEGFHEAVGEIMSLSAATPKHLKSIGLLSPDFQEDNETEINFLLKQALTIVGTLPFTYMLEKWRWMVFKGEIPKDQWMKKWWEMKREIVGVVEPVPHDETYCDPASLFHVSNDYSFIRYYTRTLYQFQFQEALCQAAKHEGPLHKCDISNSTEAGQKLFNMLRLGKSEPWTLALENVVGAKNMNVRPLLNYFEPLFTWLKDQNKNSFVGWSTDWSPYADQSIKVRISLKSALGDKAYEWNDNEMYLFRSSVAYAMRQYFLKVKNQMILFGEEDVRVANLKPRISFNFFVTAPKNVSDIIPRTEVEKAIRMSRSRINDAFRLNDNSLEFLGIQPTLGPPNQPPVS

Compound: 5′-CGGGCGCGTTTTCGCGCCCG-3′ (DNA CGGGCGCGTTTTCGCGCCCG; DNA, backbone and methylation of C not given here; hairpin) [DNA hairpin, 20-base single strand oligomer forming an intramolecular stem-loop hairpin, DNA standard molecule]
- Tm [1]: 94.34±0.06 °C

Compound: O=C(O)CCCC[C@@H]1SC[C@@H]2NC(=O)N[C@@H]21 [Biotin, biotin]
- Streptavidin + Biotin Tm (streptavidin; [4]): 79.96 ± 0.36 °C
- Streptavidin + Biotin Tm (streptavidin; [5]): 79.17 ± 0.06 °C
- Streptavidin + Biotin Tm (streptavidin; [6]): 80.71 ± 0.12 °C
- Streptavidin + Biotin Tm (streptavidin; [7]): 81.16 ± 0.07 °C
- shift up of streptavidin melting temperature with biotin (streptavidin; Conditions I-III): 1-2 °C
- shift in Tm for the dominant peak on addition of biotin (streptavidin; [8]): ~1 °C
- temperature shift of streptavidin thermogram with biotin (streptavidin; in E. coli lysate at decreased concentrations): 1.4 °C and 0.9 °C
- reduction in peak height of streptavidin thermogram with biotin binding (streptavidin; streptavidin (1 mg/mL) + 2 molar equivalents biotin in buffer (FIG. 5D)): 20%

Compound: C[C@H](CS)C(=O)N1CCC[C@H]1C(=O)O [Captopril]
- binding to / effect on ACE2 from difference thermogram [2]: relatively lesser effect on ACE2

Compound: NCCCC[C@H](N[C@@H](CCc1ccccc1)C(=O)O)C(=O)N1CCC[C@H]1C(=O)O [Lisinopril]
- inhibiting COVID-19 infection (COVID-19): ineffective
- binding to ACE2 compared with captopril (docking) (ACE2): stronger binder to ACE2

Compound: ACE2: unpurified angiotensin converting enzyme 2 expressed in HEK293 cells, Gln18-Ser740, RayBiotech
- difference thermogram peak temperature (peak assigned to C-domain) [3, 9]: 55.6 °C
- difference thermogram peak temperature (peak assigned to N-domain) [3, 9]: 70.6 °C

Compound: Streptavidin
- Streptavidin Tm [3, 4]: 79.03 ± 0.18 °C
- Streptavidin Tm [3, 5]: 77.39 ± 0.05 °C
- Streptavidin Tm [3, 6]: 79.82 ± 0.10 °C
- Streptavidin Tm [3, 7]: 79.70 ± 0.02 °C
- melting temperature of streptavidin without biotin ([3]; Conditions I-III): around 80 °C
- streptavidin peak temperature [3, 8]: ~79 °C

Compound: lysozyme: lysozyme, recombinant, expressed in rice
- Tm [1]: 64.77±0.16 °C
